Results taken from ChEMBL document CHEMBL3351867, “Sequence-specific DNA alkylation and transcriptional inhibition by long-chain hairpin pyrrole-imidazole polyamide-chlorambucil conjugates targeting CAG/CTG trinucleotide repeats” (Bioorg Med Chem, 2014).
pKd: −log10 of the molar value. Each block holds one molecule with its values, some of them ahead of it. Calls of active or inactive are those of the source. The calls are words filed in the database; no cut-off is given here.

Legend:
[1] = Induction of DNA alkylation of 5'-Texas Red-labeled 214 bp DNA fragments with (CAG)12 repeat sequence (unknown origin) at 2.5 to 20 nM after 18 hrs by high resolution gel electrophoresis
[2] = Induction of DNA alkylation of 5'-Texas Red-labeled 214 bp DNA fragments with (CTG)12 repeat sequence (unknown origin) at 2.5 to 20 nM after 18 hrs by high resolution gel electrophoresis
[3] = Induction of DNA alkylation of 5'-Texas Red-labeled 214 bp DNA fragments with (5'-(CAG)12CAA-3' repeat sequence (unknown origin) at 2.5 to 20 nM after 18 hrs by high resolution gel electrophoresis
[4] = Induction of DNA alkylation of 5'-Texas Red-labeled 214 bp DNA fragments with (5'-TTG(CTG)12-3' repeat sequence (unknown origin) at 2.5 to 20 nM after 18 hrs by high resolution gel electrophoresis
[5] = Induction of DNA alkylation of 5'-Texas Red-labeled 214 bp DNA fragments with (CAG)12 repeat sequence (unknown origin) at 150 nmol after 18 hrs by high resolution gel electrophoresis
[6] = Induction of DNA alkylation of DNA fragments with (CAG)12 repeat sequence (unknown origin) assessed as inhibition of T7 RNA polymerase-mediated transcription using T7 promoter primer and sp6 promoter primer at 10 to 30 nM after 18 hrs by […] staining based high resolution gel electrophoresis
[7] = Induction of DNA alkylation of DNA fragments with (CTG)12 repeat sequence (unknown origin) assessed as inhibition of T7 RNA polymerase-mediated transcription using T7 promoter primer and sp6 promoter primer at 10 to 30 nM after 18 hrs by […] staining based high resolution gel electrophoresis
[8] = Binding affinity to biotinylated (5'-AGCAGCAGCA-3'/5'-TGCTGCTGCT-3') hairpin DNA (unknown origin) by SPR assay
[9] = Binding affinity to biotinylated (5'-AGCAGCAGCA-3'/5'-TGCTGCTGCT-3') hairpin DNA (unknown origin) assessed as […] of compound from 1:1 compound and DNA complex by SPR assay
[10] = Binding affinity to biotinylated (5'-AGCAGCAGCA-3'/5'-TGCTGCTGCT-3') hairpin DNA (unknown origin) assessed as […] of compound from 2:1 compound and DNA complex by SPR assay

- Activity [1]: Active
- Activity [2]: Active
- Activity [3]: Active
- Activity [4]: Active
SMILES: CC(=O)Nc1cn(C)c(C(=O)Nc2cc(C(=O)NCCC(=O)Nc3cn(C)c(C(=O)Nc4cc(C(=O)NCCC(=O)Nc5cn(C)c(C(=O)Nc6cc(C(=O)NCCCC(=O)Nc7cn(C)c(C(=O)Nc8cc(C(=O)NCCC(=O)Nc9cn(C)c(C(=O)Nc%10cc(C(=O)NCCC(=O)Nc%11cn(C)c(C(=O)Nc%12cc(C(=O)NCCC(=O)NCCCN(C)CCCNC(=O)CCCc%13ccc(N(CCCl)CCCl)cc%13)n(C)c%12)n%11)n(C)c%10)n9)n(C)c8)n7)n(C)c6)n5)n(C)c4)n3)n(C)c2)n1

- Activity [1]: inactive
- Activity [5]: Active
- Activity [2]: Active
SMILES: CC(=O)Nc1cn(C)c(C(=O)Nc2cc(C(=O)NCCC(=O)Nc3cn(C)c(C(=O)Nc4cc(C(=O)NCCCC(=O)Nc5cn(C)c(C(=O)Nc6cc(C(=O)NCCC(=O)Nc7cn(C)c(C(=O)Nc8cc(C(=O)NCCC(=O)NCCCN(C)CCCNC(=O)CCCc9ccc(N(CCCl)CCCl)cc9)n(C)c8)n7)n(C)c6)n5)n(C)c4)n3)n(C)c2)n1

- Activity [3]: Active
- Activity [4]: Active
- Activity [6]: Dose-dependent effect
- Activity [7]: Dose-dependent effect
SMILES: CC(=O)Nc1cn(C)c(C(=O)Nc2cc(C(=O)NCCC(=O)Nc3cn(C)c(C(=O)Nc4cc(C(=O)NCCC(=O)Nc5cn(C)c(C(=O)Nc6cc(C(=O)NCC[C@@H](N)C(=O)Nc7cn(C)c(C(=O)Nc8cc(C(=O)NCCC(=O)Nc9cn(C)c(C(=O)Nc%10cc(C(=O)NCCC(=O)Nc%11cn(C)c(C(=O)Nc%12cc(C(=O)NCCC(=O)NCCCN(C)CCCNC(=O)CCCc%13ccc(N(CCCl)CCCl)cc%13)n(C)c%12)n%11)n(C)c%10)n9)n(C)c8)n7)n(C)c6)n5)n(C)c4)n3)n(C)c2)n1

- pKd [8]: 7.28
SMILES: CC(=O)Nc1cn(C)c(C(=O)Nc2cc(C(=O)NCCC(=O)Nc3cn(C)c(C(=O)Nc4cc(C(=O)NCCC(=O)Nc5cn(C)c(C(=O)Nc6cc(C(=O)NCCCC(=O)Nc7cn(C)c(C(=O)Nc8cc(C(=O)NCCC(=O)Nc9cn(C)c(C(=O)Nc%10cc(C(=O)NCCC(=O)Nc%11cn(C)c(C(=O)Nc%12cc(C(=O)NCCC(=O)NCCCN(C)CCCN)n(C)c%12)n%11)n(C)c%10)n9)n(C)c8)n7)n(C)c6)n5)n(C)c4)n3)n(C)c2)n1

- Activity [6]: inactive
- Activity [7]: inactive
- pKd [8]: 7.96
SMILES: CC(=O)Nc1cn(C)c(C(=O)Nc2cc(C(=O)NCCC(=O)Nc3cn(C)c(C(=O)Nc4cc(C(=O)NCCC(=O)Nc5cn(C)c(C(=O)Nc6cc(C(=O)NCC[C@@H](N)C(=O)Nc7cn(C)c(C(=O)Nc8cc(C(=O)NCCC(=O)Nc9cn(C)c(C(=O)Nc%10cc(C(=O)NCCC(=O)Nc%11cn(C)c(C(=O)Nc%12cc(C(=O)NCCC(=O)NCCCN(C)CCCN)n(C)c%12)n%11)n(C)c%10)n9)n(C)c8)n7)n(C)c6)n5)n(C)c4)n3)n(C)c2)n1

More lines, now with the values behind:

SMILES: CC(=O)Nc1cn(C)c(C(=O)Nc2cc(C(=O)NCCC(=O)Nc3cn(C)c(C(=O)Nc4cc(C(=O)NCCC(=O)NCCCN(C)CCCN)n(C)c4)n3)n(C)c2)n1
- pKd [9]: 6.21
- pKd [10]: 7.89

SMILES: CC(=O)Nc1cn(C)c(C(=O)Nc2cc(C(=O)NCCC(=O)Nc3cn(C)c(C(=O)Nc4cc(C(=O)NCCCC(=O)Nc5cn(C)c(C(=O)Nc6cc(C(=O)NCCC(=O)Nc7cn(C)c(C(=O)Nc8cc(C(=O)NCCC(=O)NCCCN(C)CCCN)n(C)c8)n7)n(C)c6)n5)n(C)c4)n3)n(C)c2)n1
- pKd [8]: 7.85

SMILES: CC(=O)Nc1cn(C)c(C(=O)Nc2cc(C(=O)NCCC(=O)Nc3cn(C)c(C(=O)Nc4cc(C(=O)NCCC(=O)NCCCN(C)CCCNC(=O)CCCc5ccc(N(CCCl)CCCl)cc5)n(C)c4)n3)n(C)c2)n1
- Activity [1]: inactive
- Activity [2]: inactive
